Patent US5409933A, “Quinoline derivatives and processes for preparing the same” (priority 1993, dated 1995)
Counter-ions that a name gives are not always drawn. Like-named read-outs stand apart in the source and are kept apart here.

Key:
Experiment in all cases: In Vitro Anti-Bacterial Activity Test (MIC, agar dilution)
Assay type in all cases: cell-based
[1] = test system: Enterobacter cloacae 1321E
In short: (§1)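 Compounds were diluted into Muller-Hinton agar plates, which were inoculated with 10^7 C.F.U./ml of each strain. Plates were kept at 37° C. for 18 hours before growth was read.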

Enterobacter cloacae P99 = conditions: Enterobacter cloacae, P99, 18 h
In short: (§2)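 Agar-incorporation MIC: Muller-Hinton medium, 10^7 C.F.U./ml inoculum, 18 h incubation at 37° C., growth checked by eye; ciprofloxacin reference.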

Escherichia coli 078 = test system: Escherichia coli 078
In short: as §1

Escherichia coli 1507E = conditions: Muller-Hinton agar, 37° C.
In short: as §1

Escherichia coli DC0 = conditions: Muller-Hinton agar, 37° C., 18 hours, read-out: MIC
In short: as §1

Escherichia coli DC2 = conditions: Escherichia coli, DC2, 18 h
In short: as §1

Escherichia coli TEM = conditions: Escherichia coli, 18 h, Muller-Hinton agar, 37° C.
In short: as §2

[2] = test system: Klebsiella aerogenes 1522E; conditions: Klebsiella aerogenes, 1522E, 18 h
In short: as §1

Klebsiella oxytoca 1082E = conditions: Klebsiella oxytoca 1082E; Muller-Hinton agar, 37° C., 18 hours; read-out: MIC
In short: as §1

[3] = test system: Pseudomonas aeruginosa 1592E; conditions: Muller-Hinton agar, 37° C., 18 hours, read-out: MIC
In short: as §1

[4] = test system: Pseudomonas aeruginosa 1771M; conditions: Pseudomonas aeruginosa, 1771M, 18 h, Muller-Hinton agar, 37° C.
In short: as §1

[5] = test system: Pseudomonas aeruginosa 1771; conditions: Pseudomonas aeruginosa 1771; Muller-Hinton agar, 37° C., 18 hours; read-out: MIC
In short: as §1

[6] = test system: Pseudomonas aeruginosa 9027; conditions: Muller-Hinton agar, 37° C., 18 hours, read-out: MIC
In short: as §1

Salmonella typhimurium = conditions: Salmonella enterica; Salmonella typhimurium; Muller-Hinton agar, 37° C., 18 hours; read-out: MIC
In short: as §1

[7] = test system: Staphylococcus aureus 285; conditions: Staphylococcus aureus, 285, 18 h, Staphylococcus aureus 285; Muller-Hinton agar, 37° C., 18 hours; read-out: MIC
In short: as §1

[8] = test system: Staphylococcus aureus 503; conditions: Staphylococcus aureus 503; Muller-Hinton agar, 37° C., 18 hours; read-out: MIC
In short: as §1

[9] = test system: Staphylococcus aureus SG511; conditions: Staphylococcus aureus SG511; Muller-Hinton agar, 37° C., 18 hours; read-out: MIC
In short: as §1

[10] = test system: Streptococcus faecium MD8b; conditions: Enterococcus faecium, Muller-Hinton agar, 37° C., 18 hours, read-out: MIC
In short: as §1

[11] = test system: Streptococcus pyogenes 308A; conditions: Muller-Hinton agar, 37° C., 18 hours, read-out: MIC
In short: as §1

[12] = test system: Streptococcus pyogenes 77A
In short: as §1

[13] = Enterobacter cloacae 1321E, Muller-Hinton agar, 37° C., 18 hours, read-out: MIC
[14] = Klebsiella aerogenes 1522E, Muller-Hinton agar, 37° C., 18 hours, read-out: MIC
[15] = Streptococcus pyogenes 77A, Muller-Hinton agar, 37° C., 18 hours, read-out: MIC

| SMILES | MIC [1, 13] [µg/mL] | MIC (Enterobacter cloacae P99) [µg/mL] | MIC (Escherichia coli 078; Escherichia coli, 078, 18 h) [µg/mL] | MIC (Escherichia coli 1507E; Escherichia coli, 1507E, 18 h) [µg/mL] | MIC (Escherichia coli DC0) [µg/mL] | MIC (Escherichia coli DC2) [µg/mL] | MIC (Escherichia coli TEM) [µg/mL] | MIC [2, 14] [µg/mL] | MIC (Klebsiella oxytoca 1082E) [µg/mL] | MIC [3] [µg/mL] | MIC [4] [µg/mL] | MIC [5] [µg/mL] | MIC [6] [µg/mL] | MIC (Salmonella typhimurium) [µg/mL] | MIC [7] [µg/mL] | MIC [8] [µg/mL] | MIC [9] [µg/mL] | MIC [10] [µg/mL] | MIC [11] [µg/mL] | MIC [12, 15] [µg/mL] | further results |
| --- | --- | --- | --- | --- | --- | --- | --- | --- | --- | --- | --- | --- | --- | --- | --- | --- | --- | --- | --- | --- | --- |
| Cc1c(N2CCC(N)C2)c(F)cc2c(=O)c(C(=O)C[N+](=O)[O-])cn(C3CC3)c12 (stereo not shown) [Example 50, 1-cyclopropyl-6-fluoro-8-methyl-7-(3-aminopyrrolidin-1-yl)-3-(2-nitroacetyl)-1,4-dihydro-4-oxoquinoline hydrochloride] | 0.013 | 0.013 | 0.025 | 0.098 | 0.195 | 0.049 | 0.049 | 0.195 | 0.013 | 0.781 | 0.391 | 1.56 | 1.56 | 0.013 | 0.098 | 0.098 | 0.098 | 0.195 | 0.781 | 0.391 |  |
| CCOC(=O)C(C#N)C(=O)c1cn(C2CC2)c2c(Cl)c(N3CC4=C(CNC4)C3)c(F)cc2c1=O (stereo not shown) [Example 41, 1-cyclopropyl-6-fluoro-8-chloro-7-(3,7-diazabicyclo[3.3.0]oct-1,5-en-3-yl)-3-(2-cyano-2-ethoxycarbonylacetyl)-1,4-dihydro-4-oxoquinoline hydrochloride] | 0.049 | 0.098 | 0.049 | 0.391 | 3.12 | 1.56 | 0.195 |  | 0.049 | 3.12 | 1.56 | 3.12 | 6.25 | 0.098 | 6.25 | 6.25 | 3.12 | 25 | 25 | 12.5 | MIC [2]: 0.195 µg/mL |
| CN[C@H]1CCN(c2c(F)cc3c(=O)c(C(=O)C[N+](=O)[O-])cn(C4CC4)c3c2OC)C1 [Example 65, 1-cyclopropyl-6-fluoro-8-methoxy-7-(3-3S-methylaminopyrrolidin-1-yl)-3-(2-nitroacetyl)-1,4-dihydro-4-oxoquinoline hydrochloride] | 0.013 | 0.013 | 0.049 | 0.195 | 0.781 | 0.195 | 0.049 | 0.049 | 0.049 | 1.56 | 1.56 | 1.56 | 1.56 | 0.781 | 0.049 | 0.098 | 0.049 | 0.781 | 0.781 |  | MIC ([12]; Streptococcus pyogenes, 77A, 18 h): 0.781 µg/mL |
| CCOC(=O)C(C(=O)OCC)C(=O)c1cn(C2CC2)c2c(Cl)c(N3CC[C@H](N)C3)c(F)cc2c1=O [Example 24, 1-cyclopropyl-6-fluoro-8-chloro-7-(3-3S-aminopyrrolidin-1-yl)-3-(2,2-diethoxycarbonylacetyl)-1,4-dihydro-4-oxoquinoline hydrochloride] | < 0.002 | < 0.002 |  |  | 0.098 | 0.025 | < 0.002 | 0.013 | < 0.002 | 0.391 | 0.049 | 0.391 | 0.391 | < 0.002 | 0.049 | 0.049 | 0.049 | 0.391 | 0.391 | 0.391 | MIC (Escherichia coli 078; Escherichia coli 078, Muller-Hinton agar, 37° C., 18 hours, read-out: MIC): < 0.002 µg/mL; MIC (Escherichia coli 1507E; 18 hours, read-out: MIC): < 0.002 µg/mL |
| CCOC(=O)CC(=O)c1cn(C2CC2)c2c(Cl)c(N3CC=C(CNC)C3)c(F)cc2c1=O [Example 29, 1-cyclopropyl-6-fluoro-8-chloro-7-(3-methylaminomethyl-2,5-dihydropyrrol-1-yl)-3-(2-ethoxycarbonylacetyl)-1,4-dihydro-4-oxoquinoline hydrochloride] |  | 0.013 | 0.013 | 0.049 | 0.195 | 0.098 | 0.013 | 0.013 | 0.049 | 0.781 | 0.391 | 1.56 | 1.56 | 0.391 | 0.049 | 0.013 | 0.013 | 0.098 | 0.391 | 0.098 | MIC ([1]; Enterobacter cloacae, 1321E, 18 h): 0.007 µg/mL |
